As usually defined, the EC50 is the concentration giving half of the maximal effect. Higher therefore signals weaker potency.

In this test the test system is T1, HassOR67/Orco (HassOR67/HassOrco; OR67).
T1 construct: full-length ORF from antennal cDNA in pT7Ts; cRNA co-injected with Orco cRNA into Xenopus laevis oocytes; with Odorant receptor coreceptor
The experiment in a line: two-electrode voltage clamp, Xenopus oocytes. The note with it: co-expressed with Orco; agonist; holding potential −80 mV; 1 × 10^−7 to 1 × 10^−3 M. Type of test: cell-based, Helicoverpa assulta. For orientation: Two-electrode voltage clamp is typically applied to oocytes expressing channels or transporters.

The molecule `CCCCCCCCC=O` [nonanal] gave an EC50 of 8.49 µM.

The values above are taken from PMC7496960, “Nonanal modulates oviposition preference in female Helicoverpa assulta (Lepidoptera: Noctuidae) via the activation of peripheral neurons” (Pest Management Science, 2020).
